Laboratory results as given in PMC4809247 (Journal of medicinal chemistry, 2015).

What was measured:
rat mGlu5 = rat mGlu5 (Rattus norvegicus, UniProt P31424); assay: Calcium mobilization mGlu5 assay; format: cell-based; conditions: for mGlu5 pEC50 (± SEM): calcium mobilization, average of n ≥ 3 (n = 2 where marked)
rat mGlu3 = rat mGlu3 (Rattus norvegicus, UniProt P31422); conditions: calcium mobilization; average of n ≥ 3
[1] = Intrinsic clearance in rat liver microsomes; format: in vitro ADME; conditions: predicted hepatic clearance based on intrinsic clearance in rat liver microsomes

Chain of rat mGlu3 (P31422 23-879): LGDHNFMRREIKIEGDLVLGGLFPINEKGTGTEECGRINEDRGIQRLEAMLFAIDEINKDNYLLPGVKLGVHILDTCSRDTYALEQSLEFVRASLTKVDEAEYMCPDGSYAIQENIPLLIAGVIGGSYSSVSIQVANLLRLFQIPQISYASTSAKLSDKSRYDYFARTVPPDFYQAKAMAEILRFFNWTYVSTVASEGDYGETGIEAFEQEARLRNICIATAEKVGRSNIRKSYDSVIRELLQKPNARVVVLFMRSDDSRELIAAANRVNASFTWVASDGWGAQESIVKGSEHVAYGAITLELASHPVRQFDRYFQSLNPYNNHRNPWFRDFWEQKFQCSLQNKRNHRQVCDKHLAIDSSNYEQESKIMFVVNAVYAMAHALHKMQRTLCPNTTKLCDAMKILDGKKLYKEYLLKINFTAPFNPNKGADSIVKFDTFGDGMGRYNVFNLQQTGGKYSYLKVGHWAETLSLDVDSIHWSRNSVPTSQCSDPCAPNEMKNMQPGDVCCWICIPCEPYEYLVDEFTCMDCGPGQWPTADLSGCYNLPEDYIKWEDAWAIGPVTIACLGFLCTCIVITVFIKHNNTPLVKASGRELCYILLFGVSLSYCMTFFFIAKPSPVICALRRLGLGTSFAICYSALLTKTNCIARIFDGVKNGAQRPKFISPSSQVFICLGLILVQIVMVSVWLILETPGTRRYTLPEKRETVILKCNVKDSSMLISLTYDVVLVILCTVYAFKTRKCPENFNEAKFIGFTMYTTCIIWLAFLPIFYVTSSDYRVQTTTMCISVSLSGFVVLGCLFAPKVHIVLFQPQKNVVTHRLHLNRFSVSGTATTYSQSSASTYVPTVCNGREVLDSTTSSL
Chain of rat mGlu5 (P31424 21-1203): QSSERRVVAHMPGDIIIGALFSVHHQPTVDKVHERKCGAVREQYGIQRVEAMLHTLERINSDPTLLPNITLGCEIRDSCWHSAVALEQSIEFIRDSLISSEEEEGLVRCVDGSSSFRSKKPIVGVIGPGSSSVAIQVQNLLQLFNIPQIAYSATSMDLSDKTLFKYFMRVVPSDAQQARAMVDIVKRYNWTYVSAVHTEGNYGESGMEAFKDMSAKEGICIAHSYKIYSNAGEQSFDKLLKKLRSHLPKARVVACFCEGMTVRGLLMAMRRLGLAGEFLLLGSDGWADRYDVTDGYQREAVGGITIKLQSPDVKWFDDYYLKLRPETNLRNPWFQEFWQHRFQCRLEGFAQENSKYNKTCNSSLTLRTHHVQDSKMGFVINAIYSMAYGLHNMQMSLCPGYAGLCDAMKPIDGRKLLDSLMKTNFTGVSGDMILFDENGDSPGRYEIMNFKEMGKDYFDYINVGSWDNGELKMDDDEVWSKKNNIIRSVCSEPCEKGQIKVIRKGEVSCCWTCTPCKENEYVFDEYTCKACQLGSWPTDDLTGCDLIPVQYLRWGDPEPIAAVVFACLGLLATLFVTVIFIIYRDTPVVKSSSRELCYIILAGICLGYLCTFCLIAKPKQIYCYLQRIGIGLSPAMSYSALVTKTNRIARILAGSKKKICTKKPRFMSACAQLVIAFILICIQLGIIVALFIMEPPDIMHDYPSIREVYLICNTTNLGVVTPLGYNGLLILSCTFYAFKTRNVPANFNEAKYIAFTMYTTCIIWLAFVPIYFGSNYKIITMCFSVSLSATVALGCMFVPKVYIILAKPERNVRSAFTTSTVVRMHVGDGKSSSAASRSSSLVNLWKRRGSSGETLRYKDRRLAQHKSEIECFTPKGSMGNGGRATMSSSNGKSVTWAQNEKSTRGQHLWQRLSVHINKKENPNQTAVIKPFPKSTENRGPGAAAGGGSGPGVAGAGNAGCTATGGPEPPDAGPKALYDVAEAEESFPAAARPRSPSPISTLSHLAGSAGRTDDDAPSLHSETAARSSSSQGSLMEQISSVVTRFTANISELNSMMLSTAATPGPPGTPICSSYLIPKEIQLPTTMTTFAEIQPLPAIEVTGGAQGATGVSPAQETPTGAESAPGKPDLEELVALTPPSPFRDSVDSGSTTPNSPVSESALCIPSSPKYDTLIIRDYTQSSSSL

SMILES	mGlu5 pEC50 (± SEM) (rat mGlu5)	mGlu3 pIC50 (± SEM) (rat mGlu3)	also measured
C[C@@H]1CN(c2ccc(F)cc2)C(=O)c2cc(COc3ccccc3)nn21 [Compound 18]	7.34 ± 0.02	6.57 ± 0.15	fold preference for mGlu5 vs mGlu3 activity (rat mGlu5): ~6 fold
C[C@@H]1CN(c2ccc(F)cc2)C(=O)c2cc(COc3ccccc3F)nn21 [Compound 22]	6.71 ± 0.04	6.28 ± 0.20	
C[C@@H]1CN(c2ccc(F)cc2)C(=O)c2cc(COc3cccc(F)c3)nn21 [Compound 23]	7.14 ± 0.02	6.11 ± 0.03	
C[C@@H]1CN(c2ccc(F)cc2)C(=O)c2cc(COc3ccc(F)cc3F)nn21 [Compound 25]	6.51 ± 0.05	6.38 ± 0.22	
Cc1ccccc1OCc1cc2n(n1)[C@H](C)CN(c1ccc(F)cc1)C2=O [Compound 26]	5.83 ± 0.04		
Cc1ccc(OCc2cc3n(n2)[C@H](C)CN(c2ccc(F)cc2)C3=O)cc1 [Compound 28]	5.97 ± 0.04	5.92 ± 0.02	
C[C@@H]1CN(c2ccc(F)cc2)C(=O)c2cc(COc3ccccc3Cl)nn21 [Compound 29]		6.27 ± 0.18	
COc1ccccc1OCc1cc2n(n1)[C@H](C)CN(c1ccc(F)cc1)C2=O [Compound 32]		5.59 ± 0.18	
COc1cccc(OCc2cc3n(n2)[C@H](C)CN(c2ccc(F)cc2)C3=O)c1 [Compound 33]	5.74 ± 0.04		
COc1ccc(OCc2cc3n(n2)[C@H](C)CN(c2ccc(F)cc2)C3=O)cc1 [Compound 34]	5.87 ± 0.16	5.98 ± 0.02	
C[C@@H]1CN(c2ccc(F)cc2)C(=O)c2cc(COc3ccc(C(F)(F)F)cc3)nn21 [Compound 35]	<4.5	5.73 ± 0.01	
CCc1ccc(OCc2cc3n(n2)[C@H](C)CN(c2ccc(F)cc2)C3=O)cc1 [Compound 36]	5.49 ± 0.03		
C[C@@H]1CN(c2ccc(F)cc2)C(=O)c2cc(COc3ccc(C#N)cc3)nn21 [Compound 37]	5.71 ± 0.06	6.11 ± 0.12	
CCOc1ccc(OCc2cc3n(n2)[C@H](C)CN(c2ccc(F)cc2)C3=O)cc1 [Compound 38]	<4.5	5.94 ± 0.06	mGlu5: no activity up to the highest concentration tested (rat mGlu5): > 30 µM
C[C@@H]1CN(c2ccc(F)cc2)C(=O)c2cc(COc3ccc(OC(F)(F)F)cc3)nn21 [Compound 39]	<4.5	5.39 ± 0.04	mGlu5: no activity up to the highest concentration tested (rat mGlu5): > 30 µM
C[C@@H]1CN(c2ccc(F)cc2)C(=O)c2cc(COc3ncccc3F)nn21 [Compound 41]		5.96 ± 0.02	
C[C@@H]1CN(c2ccc(F)cc2)C(=O)c2cc(COc3ncccc3C(F)(F)F)nn21 [Compound 42]	<4.5		mGlu5: no activity up to the highest concentration tested (rat mGlu5): > 30 µM
COc1cccnc1OCc1cc2n(n1)[C@H](C)CN(c1ccc(F)cc1)C2=O [Compound 43]	<4.5		mGlu5: no activity up to the highest concentration tested (rat mGlu5): > 30 µM
Cc1ccnc(OCc2cc3n(n2)[C@H](C)CN(c2ccc(F)cc2)C3=O)c1 [Compound 44]		5.68 ± 0.01	

SMILES	mGlu5 pEC50 (± SEM) (rat mGlu5)	mGlu3 pIC50 (± SEM) (rat mGlu3)	also measured
C[C@@H]1CN(c2ccc(F)cc2)C(=O)c2cc(COc3cc(C(F)(F)F)ccn3)nn21 [Compound 45]		5.78 ± 0.01	
COc1ccnc(OCc2cc3n(n2)[C@H](C)CN(c2ccc(F)cc2)C3=O)c1 [Compound 46]		5.43 ± 0.00	
C[C@@H]1CN(c2ccc(F)cc2)C(=O)c2cc(COc3ccc(F)cn3)nn21 [Compound 47]		6.27 ± 0.02	
Cc1cccc(OCc2cc3n(n2)[C@H](C)CN(c2ccc(F)cc2)C3=O)n1 [Compound 49]		5.62 ± 0.02	
C[C@@H]1CN(c2ccc(F)cc2)C(=O)c2cc(COc3cccc(C(F)(F)F)n3)nn21 [Compound 50]	<4.5	5.63 ± 0.02	mGlu5: no activity up to the highest concentration tested (rat mGlu5): > 30 µM
C[C@@H]1CN(c2ccccc2F)C(=O)c2cc(COc3ccc(F)cn3)nn21 [Compound 55]			rat CLhep [1]: 64.7 mL/min/kg
C[C@@H]1CN(c2cccc(F)c2)C(=O)c2cc(COc3ccc(F)cn3)nn21 [Compound 56]		6.72 ± 0.08	rat CLhep [1]: 53.0 mL/min/kg
C[C@@H]1CN(c2ccccc2Cl)C(=O)c2cc(COc3ccc(F)cn3)nn21 [Compound 57]		6.85 ± 0.16	rat CLhep [1]: 66.5 mL/min/kg
C[C@@H]1CN(c2cccc(Cl)c2)C(=O)c2cc(COc3ccc(F)cn3)nn21 [Compound 58]			rat CLhep [1]: 51.9 mL/min/kg
C[C@@H]1CN(c2ccc(Cl)cc2)C(=O)c2cc(COc3ccc(F)cn3)nn21 [Compound 59]		6.71 ± 0.13	
Cc1cccc(N2C[C@@H](C)n3nc(COc4ccc(F)cn4)cc3C2=O)c1 [Compound 61]		6.67 ± 0.15	rat CLhep [1]: 58.4 mL/min/kg
COc1cccc(N2C[C@@H](C)n3nc(COc4ccc(F)cn4)cc3C2=O)c1 [Compound 64]		6.70 ± 0.06	
COc1ccc(N2C[C@@H](C)n3nc(COc4ccc(F)cn4)cc3C2=O)cc1 [Compound 65]		6.49 ± 0.10	
C[C@@H]1CN(c2cccc(F)c2F)C(=O)c2cc(COc3ccc(F)cn3)nn21 [Compound 66]		6.73 ± 0.16	rat CLhep [1]: 63.6 mL/min/kg
C[C@@H]1CN(c2cc(F)ccc2F)C(=O)c2cc(COc3ccc(F)cn3)nn21 [Compound 67]			rat CLhep [1]: 49.6 mL/min/kg
C[C@@H]1CN(c2c(F)cccc2F)C(=O)c2cc(COc3ccc(F)cn3)nn21 [Compound 68]			rat CLhep [1]: 64.6 mL/min/kg
C[C@@H]1CN(c2cccnc2)C(=O)c2cc(COc3ccc(F)cn3)nn21 [Compound 70]		6.36 ± 0.13	
C[C@@H]1CN(c2ccncc2)C(=O)c2cc(COc3ccc(F)cn3)nn21 [Compound 71]	<4.5	6.05 ± 0.04	
C[C@@H]1CN(c2ccc(F)cn2)C(=O)c2cc(COc3ccc(F)cn3)nn21 [Compound 72]		6.46 ± 0.07	

SMILES	mGlu5 pEC50 (± SEM) (rat mGlu5)	mGlu3 pIC50 (± SEM) (rat mGlu3)	also measured
C[C@@H]1CN(c2ccccc2F)C(=O)c2cc(COc3ccc(Cl)cn3)nn21 [Compound 80]		6.65 ± 0.04	
C[C@@H]1CN(c2cccc(F)c2)C(=O)c2cc(COc3ccc(Cl)cn3)nn21 [Compound 81]		6.69 ± 0.04	
C[C@@H]1CN(c2ccccc2Cl)C(=O)c2cc(COc3ccc(Cl)cn3)nn21 [Compound 82]		6.48 ± 0.08	
C[C@@H]1CN(c2cccc(Cl)c2)C(=O)c2cc(COc3ccc(Cl)cn3)nn21 [Compound 83]		6.25 ± 0.07	
C[C@@H]1CN(c2ccc(Cl)cc2)C(=O)c2cc(COc3ccc(Cl)cn3)nn21 [Compound 84]		5.91 ± 0.25	
Cc1ccccc1N1C[C@@H](C)n2nc(COc3ccc(Cl)cn3)cc2C1=O [Compound 85]		6.24 ± 0.18	
Cc1cccc(N2C[C@@H](C)n3nc(COc4ccc(Cl)cn4)cc3C2=O)c1 [Compound 86]		6.41 ± 0.05	
Cc1ccc(N2C[C@@H](C)n3nc(COc4ccc(Cl)cn4)cc3C2=O)cc1 [Compound 87]		6.39 ± 0.21	
COc1cccc(N2C[C@@H](C)n3nc(COc4ccc(Cl)cn4)cc3C2=O)c1 [Compound 89]		6.50 ± 0.05	
C[C@@H]1CN(c2ccccc2C#N)C(=O)c2cc(COc3ccc(Cl)cn3)nn21 [Compound 91]		6.37 ± 0.05	
C[C@@H]1CN(c2cccc(C#N)c2)C(=O)c2cc(COc3ccc(Cl)cn3)nn21 [Compound 92]		6.08 ± 0.26	
C[C@@H]1CN(c2ccc(C#N)cc2)C(=O)c2cc(COc3ccc(Cl)cn3)nn21 [Compound 93]		6.27 ± 0.05	
C[C@@H]1CN(c2ccc(F)cc2F)C(=O)c2cc(COc3ccc(Cl)cn3)nn21 [Compound 95]		6.55 ± 0.08	
C[C@@H]1CN(c2cc(F)cc(F)c2)C(=O)c2cc(COc3ccc(Cl)cn3)nn21 [Compound 97]		6.38 ± 0.07	
C[C@@H]1CN(c2cc(F)ccc2C#N)C(=O)c2cc(COc3ccc(Cl)cn3)nn21 [Compound 98]	<4.5	6.28 ± 0.06	mGlu5: no activity up to the highest concentration tested (rat mGlu5): > 30 µM
C[C@@H]1CN(c2ncccc2F)C(=O)c2cc(COc3ccc(Cl)cn3)nn21 [Compound 102]		6.44 ± 0.03	
C[C@@H]1CN(c2ncccc2C#N)C(=O)c2cc(COc3ccc(Cl)cn3)nn21 [Compound 103]	<4.5		
C[C@@H]1CN(c2ccc(F)cn2)C(=O)c2cc(COc3ccc(Cl)cn3)nn21 [Compound 104]		6.59 ± 0.09	
C[C@@H]1CN(c2cccc(F)n2)C(=O)c2cc(COc3ccc(Cl)cn3)nn21 [Compound 105]		6.53 ± 0.08	
